According to ChEMBL document CHEMBL3259629, “Discovery and optimization of piperidyl-1,2,3-triazole ureas as potent, selective, and in vivo-active inhibitors of α/β-hydrolase domain containing 6 (ABHD6)” (J Med Chem, 2013):

Columns and labels:
Conditions in all cases: Neuro2a, 3 nM
[1] = target: T1, Palmitoyl-protein thioesterase ABHD10, mitochondrial (Mus musculus) (UniProt Q6PE15)
T1 sequence (whole entry): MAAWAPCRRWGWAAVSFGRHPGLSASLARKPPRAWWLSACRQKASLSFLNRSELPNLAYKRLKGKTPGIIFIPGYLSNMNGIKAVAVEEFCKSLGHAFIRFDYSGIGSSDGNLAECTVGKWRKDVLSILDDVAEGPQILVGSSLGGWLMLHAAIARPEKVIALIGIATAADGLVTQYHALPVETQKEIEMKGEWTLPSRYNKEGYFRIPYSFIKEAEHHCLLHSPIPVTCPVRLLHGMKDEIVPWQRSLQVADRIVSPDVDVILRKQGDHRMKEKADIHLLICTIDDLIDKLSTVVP
Description: Inhibition of Abhd10 in mouse Neuro2a cells at 3 nM after 4 hrs by ABPP-SILAC assay

[2] = target: T2, Fatty-acid amide hydrolase 1 (Mus musculus) (UniProt O08914)
T2 sequence (whole entry): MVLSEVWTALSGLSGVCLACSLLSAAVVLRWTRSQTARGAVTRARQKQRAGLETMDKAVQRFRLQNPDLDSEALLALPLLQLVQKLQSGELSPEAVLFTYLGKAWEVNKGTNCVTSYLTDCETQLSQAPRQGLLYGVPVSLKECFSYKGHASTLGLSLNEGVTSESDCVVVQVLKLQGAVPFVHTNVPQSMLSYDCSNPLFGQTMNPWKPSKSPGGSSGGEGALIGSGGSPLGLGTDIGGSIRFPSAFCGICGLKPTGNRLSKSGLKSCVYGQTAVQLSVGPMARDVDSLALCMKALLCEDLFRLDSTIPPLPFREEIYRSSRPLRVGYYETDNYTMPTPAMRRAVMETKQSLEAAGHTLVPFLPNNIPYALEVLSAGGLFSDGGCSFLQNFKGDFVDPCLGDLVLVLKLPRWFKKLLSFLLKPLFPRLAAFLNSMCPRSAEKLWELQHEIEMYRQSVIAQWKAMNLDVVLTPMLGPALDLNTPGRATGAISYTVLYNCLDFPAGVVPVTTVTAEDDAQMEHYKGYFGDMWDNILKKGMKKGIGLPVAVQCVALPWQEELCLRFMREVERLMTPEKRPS
Description: Inhibition of Faah in mouse Neuro2a cells at 3 nM after 4 hrs by ABPP-SILAC assay

[3] = target: T3, Neutral cholesterol ester hydrolase 1 (Mus musculus) (UniProt Q8BLF1)
T3 sequence (whole entry): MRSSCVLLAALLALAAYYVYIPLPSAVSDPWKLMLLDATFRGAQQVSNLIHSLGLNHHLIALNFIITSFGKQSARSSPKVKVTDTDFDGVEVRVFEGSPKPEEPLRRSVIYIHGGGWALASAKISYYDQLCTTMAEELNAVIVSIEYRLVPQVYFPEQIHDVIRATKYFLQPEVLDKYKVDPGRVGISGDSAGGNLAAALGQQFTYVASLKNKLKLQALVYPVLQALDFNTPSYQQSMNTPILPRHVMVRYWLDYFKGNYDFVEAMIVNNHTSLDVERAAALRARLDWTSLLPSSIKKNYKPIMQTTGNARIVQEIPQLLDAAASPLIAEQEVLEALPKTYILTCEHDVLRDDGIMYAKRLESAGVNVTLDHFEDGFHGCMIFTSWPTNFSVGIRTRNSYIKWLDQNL
Description: Inhibition of Aadacl1 in mouse Neuro2a cells at 3 nM after 4 hrs by ABPP-SILAC assay

[4] = target: T4, Lysosomal thioesterase PPT2 (Mus musculus) (UniProt O35448)
T4 sequence (whole entry): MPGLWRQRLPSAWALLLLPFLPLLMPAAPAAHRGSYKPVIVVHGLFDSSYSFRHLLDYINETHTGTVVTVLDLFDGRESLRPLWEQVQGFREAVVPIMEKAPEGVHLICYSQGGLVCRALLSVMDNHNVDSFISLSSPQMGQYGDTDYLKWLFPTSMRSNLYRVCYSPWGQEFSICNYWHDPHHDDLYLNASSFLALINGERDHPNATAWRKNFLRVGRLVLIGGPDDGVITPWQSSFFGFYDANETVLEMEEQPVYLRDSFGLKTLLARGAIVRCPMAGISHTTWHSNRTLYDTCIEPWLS
Description: Inhibition of Ppt2 in mouse Neuro2a cells at 3 nM after 4 hrs by ABPP-SILAC assay

[5] = target: T5, Patatin-like phospholipase domain-containing protein 6 (Mus musculus) (UniProt Q3TRM4)
T5 sequence (whole entry): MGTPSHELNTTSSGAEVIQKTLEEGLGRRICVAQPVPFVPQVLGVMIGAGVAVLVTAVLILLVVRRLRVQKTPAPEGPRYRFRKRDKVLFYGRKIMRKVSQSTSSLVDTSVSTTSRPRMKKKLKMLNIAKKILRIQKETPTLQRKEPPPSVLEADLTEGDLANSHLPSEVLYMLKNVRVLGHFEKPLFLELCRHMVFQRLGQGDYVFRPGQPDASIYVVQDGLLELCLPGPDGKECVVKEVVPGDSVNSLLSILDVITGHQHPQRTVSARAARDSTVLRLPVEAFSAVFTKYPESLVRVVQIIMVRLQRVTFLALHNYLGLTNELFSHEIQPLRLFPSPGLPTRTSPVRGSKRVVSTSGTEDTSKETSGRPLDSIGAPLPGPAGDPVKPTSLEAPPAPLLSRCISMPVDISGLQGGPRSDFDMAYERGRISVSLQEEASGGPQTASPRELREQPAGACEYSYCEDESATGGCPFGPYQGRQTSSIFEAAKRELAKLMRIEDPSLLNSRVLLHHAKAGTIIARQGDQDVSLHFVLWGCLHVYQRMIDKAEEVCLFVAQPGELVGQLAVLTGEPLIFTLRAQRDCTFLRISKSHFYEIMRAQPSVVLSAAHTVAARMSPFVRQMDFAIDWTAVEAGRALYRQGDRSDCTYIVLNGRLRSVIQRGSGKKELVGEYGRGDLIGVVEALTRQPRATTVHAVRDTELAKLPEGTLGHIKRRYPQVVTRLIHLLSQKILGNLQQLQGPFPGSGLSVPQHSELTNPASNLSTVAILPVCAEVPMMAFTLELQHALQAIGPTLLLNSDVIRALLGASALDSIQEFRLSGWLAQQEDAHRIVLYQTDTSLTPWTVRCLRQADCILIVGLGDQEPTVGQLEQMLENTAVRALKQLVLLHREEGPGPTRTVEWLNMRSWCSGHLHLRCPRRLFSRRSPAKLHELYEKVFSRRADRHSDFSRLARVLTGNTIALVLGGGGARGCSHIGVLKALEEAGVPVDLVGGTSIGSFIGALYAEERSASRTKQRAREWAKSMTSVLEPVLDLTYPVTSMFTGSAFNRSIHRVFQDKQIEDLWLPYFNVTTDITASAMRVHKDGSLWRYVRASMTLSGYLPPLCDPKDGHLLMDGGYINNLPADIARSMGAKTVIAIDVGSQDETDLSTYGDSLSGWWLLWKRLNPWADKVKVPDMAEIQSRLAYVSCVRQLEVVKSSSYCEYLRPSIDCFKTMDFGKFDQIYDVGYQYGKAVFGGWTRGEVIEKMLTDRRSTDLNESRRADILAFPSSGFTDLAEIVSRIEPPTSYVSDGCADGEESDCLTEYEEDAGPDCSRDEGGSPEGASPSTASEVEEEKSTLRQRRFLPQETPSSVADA
Description: Inhibition of Pnpla6 in mouse Neuro2a cells at 3 nM after 4 hrs by ABPP-SILAC assay

Measured: inhibition

O=C(N1CCCCC1c1ccccc1)n1cc(-c2ccc(-c3cccc(CO)c3)cc2)nn1 (racemic)
< 50%: all assays above

O=C(c1cccc(-c2ccc(-c3cn(C(=O)N4CCCCC4c4ccccc4)nn3)cc2)c1)N1CCCCC1 (racemic)
< 50%: all assays above

O=C(O)c1cccc(-c2ccc(-c3cn(C(=O)N4CCCCC4Cc4ccccc4)nn3)cc2)c1 (racemic)
< 50%: all assays above
